# Laboratory results taken from article PMC9811466, “Structural Features Affecting the Interactions and Transportability of LAT1-Targeted Phenylalanine Drug Conjugates” (Molecular Pharmaceutics, 2022).
# Several values for one entry are separate records, joined by “and”; a condition that tells them apart may be missing. Equal entries are not always repeated. Entries after “also recorded” stand apart in the source; their conditions may differ. Where two headings read alike, the source gives them in different places.
# What was measured:
# MCF-7 cells = conditions: cited from earlier work
# hLAT1/4F2hc [1] = target: T1, hLAT1/4F2hc (Homo sapiens, UniProt Q01650); test: Concentration-dependent cellular uptake into HEK-hLAT1 cells (LC-MS/MS, Michaelis-Menten); format: cell-based; conditions: difference in uptake HEK-hLAT1 vs HEK-MOCK, with docking poses; 2-100 μM curves
# T1 construct: Invitrogen (host cells)
# T1 sequence (Q01650 whole entry): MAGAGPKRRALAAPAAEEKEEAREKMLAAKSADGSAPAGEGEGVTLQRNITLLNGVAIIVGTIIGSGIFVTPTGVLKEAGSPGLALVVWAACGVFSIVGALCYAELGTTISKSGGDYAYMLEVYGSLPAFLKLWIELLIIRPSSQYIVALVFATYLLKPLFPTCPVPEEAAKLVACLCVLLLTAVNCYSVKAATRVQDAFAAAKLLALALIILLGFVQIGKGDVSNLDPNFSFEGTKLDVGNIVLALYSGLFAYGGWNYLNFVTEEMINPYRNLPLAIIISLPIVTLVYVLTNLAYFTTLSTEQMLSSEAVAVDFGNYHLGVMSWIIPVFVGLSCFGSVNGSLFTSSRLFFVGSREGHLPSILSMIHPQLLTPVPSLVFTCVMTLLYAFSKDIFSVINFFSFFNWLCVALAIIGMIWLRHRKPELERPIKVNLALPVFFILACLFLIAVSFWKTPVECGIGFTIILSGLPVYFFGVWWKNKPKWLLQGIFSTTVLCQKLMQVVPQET
# T1 sequence (P08195 102-630 partner): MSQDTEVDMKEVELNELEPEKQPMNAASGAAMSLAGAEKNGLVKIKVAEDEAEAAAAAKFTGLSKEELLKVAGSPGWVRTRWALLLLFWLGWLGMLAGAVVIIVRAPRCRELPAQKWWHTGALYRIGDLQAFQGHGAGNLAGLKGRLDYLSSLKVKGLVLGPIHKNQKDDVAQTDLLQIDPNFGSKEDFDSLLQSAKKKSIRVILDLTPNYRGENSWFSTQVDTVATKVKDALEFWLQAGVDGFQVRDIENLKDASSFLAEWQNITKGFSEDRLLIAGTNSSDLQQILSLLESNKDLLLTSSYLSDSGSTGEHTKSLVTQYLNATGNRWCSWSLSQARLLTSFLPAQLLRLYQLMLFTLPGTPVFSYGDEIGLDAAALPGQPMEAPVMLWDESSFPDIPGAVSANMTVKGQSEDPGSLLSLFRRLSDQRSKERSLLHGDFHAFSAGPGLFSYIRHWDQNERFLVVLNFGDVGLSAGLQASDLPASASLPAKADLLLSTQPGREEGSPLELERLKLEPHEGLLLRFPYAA
# HEK-MOCK cells [2] = test: Concentration-dependent cellular uptake into HEK-MOCK cells; format: cell-based, human; conditions: for Vmax: 10 min
# Procedure: (§1) The concentrations for the compounds were in the range of 2–400 μM. Otherwise, the experiment was carried out as described above and analyzed by liquid chromatography coupled with an electrospray ionization (ESI) triple quadrupole mass spectrometer (LC–MS–MS). […]
# (§2) The concentration-dependent uptake studies were performed by adding 2–400 μM of the tested compound in 250 μL of prewarmed HBSS buffer on the cell layer. […] After incubation, the cells were washed and lysed as described above. The lysate was collected from wells into an Eppendorf tube and centrifuged at 4 °C, the supernatant was collected, and the intracellular concentrations of studied compounds were analyzed by liquid chromatography coupled with an ESI triple quadrupole mass spectrometer (LC–MS–MS). The results were calculated from the standard curve that was prepared by spiking known amounts of each compound to the cell lysate and normalized to protein concentration. The protein concentrations on each plate were determined as a mean of three samples by Bio-Rad Protein Assay, based on the Bradford dye-binding method, using BSA as a standard protein and measuring the absorbance (595 nm) by a multiplate reader (EnVision, PerkinElmer, Inc., Waltham, MA, USA). All statistical analyses (Michaelis–Menten kinetic parameters) were performed using GraphPad Prism v. 5.03 software (GraphPad Software, San Diego, CA., USA). […]
# (§3) After protein precipitation, the samples were centrifuged for 10 min with 10,000 g at 4 °C. The supernatant was then collected and transferred to vials for LC–MS/MS analysis. For BCH and gabapentin, cells were also lysed with 0.1 M NaOH, an aliquot was taken from the lysates, and perchloric acid (PCA) was added to precipitate the proteins. The samples were then centrifuged, and the supernatant was diluted 1:10 with H20 with 0.1% formic acid including the IS and transferred to vials for analysis.
# (§4) The samples were analyzed with LC–MS/MS coupled with an Agilent 1200 series Rapid Resolution LC System (Agilent Technologies, Waldbronn, Germany) and an Agilent 6410 Triple Quadrupole with electrospray ionization (ESI) (Agilent Technologies, Palo Alto, CA, USA). […] The aqueous mobile phase was 0.1% formic acid in water (A), while the organic mobile phase was 0.1% formic acid in acetonitrile (B). […] For compound 4: 0–4 min 10% → 90% B, 4–6 min 90% B, 6–6.1 min 90% → 10%, 6.1–9 min 10%. For compound 5: 0–1 min 20% → 95% B, 1–4 min 95%, 4–4.1 min 95% → 20%, 4.1–7 min 20%. For compounds 6 and 9: 0–2 min 10% → 95%, 2–6 min 95%, 6–6.1 min 95% → 10%, 6.1–9 min 10%. For compound 8: 0–1 min 20% → 80%, 1–5.2 min 80%, 5.2–5.3 min 80% → 20%, 5.3–9 min 20%.
# hLAT1/4F2hc [3] = target: T1, hLAT1/4F2hc; test: cis-inhibition of [14C]-L-leucine uptake in HEK-hLAT1 cells; format: cell-based; conditions: for inhibition at 50 µM: read-out: [14C]-L-Leucine uptake inhibition % (50μM)
# Procedure: (§5) In the following experiments, the MCF-7, HEK-hLAT1, and HEK-MOCK cells were cultured, seeded, and preincubated as described above. The HBSS was removed, and the ability of the compounds to inhibit the uptake of a known LAT1 substrate, [^14C]-L-leucine (PerkinElmer, Waltham, MA, USA), was studied by incubating the cells at RT for 10 min in uptake buffer pH 7.4 (250 μL) containing 0.76 μM (0.1 mCi/mL) of [^14C]-L-leucine and 0.025–1800 μM of the studied compound (or HBSS as blank). After incubation, the reaction was stopped with ice-cold HBSS, and the cells were washed two times with ice-cold HBSS. The cells were then lysed with 250 μL of 0.1 M sodium hydroxide, the lysate was mixed with 1.0 mL of Emulsifier safe cocktail (PerkinElmer, Waltham, MA, USA), and the radioactivity was measured with a liquid scintillation counter (MicroBeta^2 counter, PerkinElmer, Waltham, MA, USA). The inhibition of [^14C]-L-leucine in the presence of the studied compounds as compared to the control (HBSS) was calculated as percentages (%).
# Using the stably hLAT1/4F2hc expressing cell line, the compounds’ inhibitory efficiencies and uptake kinetics were determined via the cis-inhibition assay and uptake studies, respectively. (Table 1) Cis-inhibition is based on the competition between the ligand and LAT1 substrate [^14C]-L-leucine that results in inhibition of substrate uptake. The competitive uptake with L-leucine is reported as the IC50 value of L-leucine uptake and extent as inhibition percentage (%) at a given concentration.
# hLAT1/4F2hc [4] = target: T1, hLAT1/4F2hc; test: Concentration-dependent cellular uptake into HEK-hLAT1 cells (LC-MS/MS, Michaelis-Menten); format: cell-based; conditions: HEK-hLAT1 cells; for Vmax: 2-400 μM, 10 min
# Procedure: as §1, §2, §3, §4
# [5] = target: T2, LAT1 in MCF-7 human breast cancer cells (Homo sapiens, UniProt Q01650); test: cis-inhibition of [14C]-L-leucine uptake in MCF-7 cells; format: cell-based; conditions: for inhibition at 50 µM: MCF7, MCF-7 cells
# T2 construct: wild-type MCF-7 human breast cancer cell line; endogenous in cells; host or cells: MCF-7 human breast cancer cells (wild type)
# T2 sequence (Q01650 whole entry): as the sequence (Q01650 whole entry) above
# T2 sequence (P08195 102-630 partner): as the sequence (P08195 102-630 partner) above
# Procedure: Cells were cultured in DMEM (Gibco, ThermoFisher Scientific, Waltham, MA, USA) supplemented with L-glutamine (2 mM; ThermoFisher Scientific, Waltham, MA, USA), heat-inactivated fetal bovine serum (10%; Gibco, ThermoFisher Scientific, Waltham, MA, USA), penicillin (50 U/mL)-streptomycin (50 μg/mL) solution (ThermoFisher Scientific, Waltham, MA, USA), and hygromycin B solution (100 μg/mL) for transfected cells. HEK-hLAT1 and HEK-MOCK cells (passages 7–20) were seeded at a density of 5 × 10^5 cells/wells onto 24-well plates. The cells were used in the characterization, competition, and uptake studies 2 days after seeding. MCF-7 cells were seeded at a density of 1 × 10^5 and were used in the competition studies 1 day after seeding. The culture medium was removed, and the cells were washed with prewarmed Hanks’ balanced salt solution (HBSS; 125 mM NaCl, 4.8 mM KCl, 1.2 mM MgSO4, 1.2 mM KH2PO4, 1.3 mM CaCl2, 5.6 mM D-glucose, and 25 mM HEPES, pH 7.4). The cells were then incubated with HBSS at 37 °C for 10 min before the experiments.
# as §5
# [6] = target: T2, LAT1 in MCF-7 human breast cancer cells; conditions: MCF-7 cells; read-out: IC50 of [14C]-L-leucine uptake; cited from earlier work
# HEK-MOCK cells [7] = test: cis-inhibition of [14C]-L-leucine uptake in HEK-MOCK cells; format: cell-based, human
# Procedure: as §5
# Using the stably hLAT1/4F2hc expressing cell line, the compounds’ inhibitory efficiencies and uptake kinetics were determined via the cis-inhibition assay and uptake studies, respectively. (Table 1) Cis-inhibition is based on the competition between the ligand and LAT1 substrate [^14C]-L-leucine that results in inhibition of substrate uptake. The competitive uptake with L-leucine is reported as the IC50 value of L-leucine uptake and extent as inhibition percentage (%) at a given concentration. Overall, the inhibition trends of the tested compounds were similar between HEK-hLAT1 and MCF-7 cells. In the next step, more straightforward results were obtained by undertaking direct cellular uptake studies with both HEK-hLAT1 and HEK-MOCK cells. This experiment enabled us to determine not only the uptake kinetics (Vmax and Km) of the ligands but also their preference for LAT1-expressing cells over the comparator HEK-MOCK cells.
# [8] = HEK-hLAT1 cells, 50 μM compound, compounds 1-12
# [9] = HEK-hLAT1 cells, compounds 1-12, read-out: IC50 of [14C]-L-leucine uptake
# [10] = HEK-hLAT1 cells, 50 μM compound, compounds 1-12, 50 µM
# [11] = known LAT1 substrates, 2-400 μM, n = 3
smiles,measurement,setting,value
N[C@@H](Cc1ccc(OC(=O)NCCc2ccc(O)c(O)c2)cc1)C(=O)O [Compound 2],Vmax,"MCF-7 cells; MCF-7 cells, previous studies",< 3 pmol/min/mg
same,interaction class with LAT1 (interaction and transportability),hLAT1/4F2hc [1],highest interactions
same,Km,HEK-MOCK cells [2]; compounds 1-12,8.7 ± 12 µM
same,Vmax,"HEK-MOCK cells [2]; compounds 1-12, 2-400 μM",19 pmol/min/mg of protein and 19±12 pmol/min/mg of protein
same,IC50,hLAT1/4F2hc [3],> 100 µM
same,[14C]-L-Leucine uptake inhibition % (50μM),hLAT1/4F2hc [3]; [8],no inhibition
same,Km,hLAT1/4F2hc [4]; compounds 1-12,103 ± 41 µM
same,Vmax,hLAT1/4F2hc [4]; compounds 1-12,1521 pmol/min/mg of protein and 1521±364 pmol/min/mg of protein
N[C@@H](Cc1cccc(C(=O)NCCc2ccc(O)c(O)c2)c1)C(=O)O [Compound 3],Vmax,"MCF-7 cells; MCF-7 cells, previous studies",< 3 pmol/min/mg
same,interaction class with LAT1 (interaction and transportability),hLAT1/4F2hc [1],highest interactions
same,inhibition at 50 µM,hLAT1/4F2hc [3]; [8],4.27 ± 3.94%
same,IC50,hLAT1/4F2hc [3]; [9],> 100 µM
same,IC50,[5]; MCF-7 cells,3.3 ± 1.3 µM
CC(C(=O)Nc1cccc(C[C@H](N)C(=O)O)c1)c1cccc(C(=O)c2ccccc2)c1 (some centres unmarked) [Compound 5],interaction class with LAT1 (interaction and transportability),hLAT1/4F2hc [1],medium interactions
same,Km,HEK-MOCK cells [2]; compounds 1-12,109 ± 69 µM
same,Vmax,"HEK-MOCK cells [2]; compounds 1-12, 2-400 μM",63±24 pmol/min/mg of protein
same,inhibition at 50 µM,hLAT1/4F2hc [3]; [8],48 ± 1.8%
same,IC50,hLAT1/4F2hc [3]; [9],11 µM
same,inhibition at 50 µM,[5]; 50 μM compound,93 ± 0.5%
same,Vmax,hLAT1/4F2hc [4]; compounds 1-12,63±7.5 pmol/min/mg of protein
same,Km,"hLAT1/4F2hc [4]; compounds 1-12, read-out: Km",19 ± 7.3 µM
same,IC50,[6],0.5 ± 0.05 µM
COc1cc(/C=C/C(=O)Nc2cccc(C[C@H](N)C(=O)O)c2)ccc1O [Compound 9],interaction class with LAT1 (interaction and transportability),hLAT1/4F2hc [1],low
same,Km,HEK-MOCK cells [2]; compounds 1-12,94 ± 45 µM
same,Vmax,"HEK-MOCK cells [2]; compounds 1-12, 2-400 μM",149±41 pmol/min/mg of protein
same,[14C]-L-Leucine uptake inhibition % (50μM),hLAT1/4F2hc [3]; [10],not able to inhibit; also recorded: no inhibition
same,IC50,hLAT1/4F2hc [3]; [9],> 100 µM
same,inhibition at 50 µM,[5]; 50 μM compound,79.7 ± 7.87%
same,IC50,[6],1.1 ± 0.08 µM
CCCN(CCC)S(=O)(=O)c1ccc(C(=O)Nc2cccc(C[C@H](N)C(=O)O)c2)cc1 [Compound 10],Km,MCF-7 cells; MCF-7 cell line,15.2 µM
same,Vmax,MCF-7 cells; MCF-7 cell line,111 pmol/min/mg
same,interaction class with LAT1 (interaction and transportability),hLAT1/4F2hc [1],low
same,Vmax,"HEK-MOCK cells [2]; compounds 1-12, 2-400 μM",248±616 pmol/min/mg of protein
same,[14C]-L-Leucine uptake inhibition % (50μM),hLAT1/4F2hc [3]; [10],11±9.9%
same,inhibition at 50 µM,hLAT1/4F2hc [3]; [8],10%
same,IC50,hLAT1/4F2hc [3]; [9],> 100 µM
same,inhibition at 50 µM,[5]; 50 μM compound,40%
same,IC50,[5]; MCF-7 cells,137 ± 1.6 µM
same,[14C]-L-Leucine uptake inhibition % (50μM),"[5]; MCF-7 cells, 50 μM compound, 50 µM",45±1.7%
"N[C@@H](Cc1ccc(N(CCCl)CCCl)cc1)C(=O)O [Melphalan, reference compound]",Vmax,HEK-MOCK cells [2]; [11],0.07±0.09 nmol/min/mg of protein
same,Km,"HEK-MOCK cells [2]; known LAT1 substrates, n = 3",91 ± 21 µM
same,IC50,hLAT1/4F2hc [3],6.6 µM
same,inhibition at 50 µM,hLAT1/4F2hc [3],38.2 ± 2.4%
same,[14C]-L-Leucine uptake inhibition % (50μM),"HEK-MOCK cells [7]; HEK-MOCK cells, 50 μM compound, 0.76 μM [14C]-L-leucine, 10 min, known substrates",no inhibition
same,Vmax,"hLAT1/4F2hc [4]; known LAT1 substrates, n = 3",0.08±0.01 nmol/min/mg of protein
same,Km,"hLAT1/4F2hc [4]; known LAT1 substrates, n = 3",35 ± 7 µM
"N[C@@H](Cc1c[nH]c2ccccc12)C(=O)O [Tryptophan, L-tryptophan, reference compound]",Vmax,HEK-MOCK cells [2]; [11],0.3±0.2 nmol/min/mg of protein
same,Km,"HEK-MOCK cells [2]; known LAT1 substrates, n = 3",482 ± 496 µM
same,IC50,"hLAT1/4F2hc [3]; HEK-hLAT1 cells, known substrates, read-out: IC50 of [14C]-L-leucine uptake",24 µM
same,inhibition at 50 µM,hLAT1/4F2hc [3],50.2 ± 1.7%
same,inhibition at 50 µM,"HEK-MOCK cells [7]; Homo sapiens, 10 min, read-out: [14C]-L-Leucine uptake inhibition % (50μM)",19.6 ± 6.2%
same,IC50,"HEK-MOCK cells [7]; Homo sapiens, read-out: IC50 of [14C]-L-leucine uptake",163 µM
same,Vmax,"hLAT1/4F2hc [4]; known LAT1 substrates, n = 3",12±19 nmol/min/mg of protein
